Source: patent publication US9617256B2 (priority 2007, dated 2017)
Converted amounts (≈) assume the structure as drawn.

What was measured:
[1] = tested on: AABA1060 (clinical isolate of Acinetobacter baumannii); test: MIC broth microdilution, AABA1060; format: cell-based; details: Acinetobacter baumannii, read-out: MIC AABA1060
Method in brief: (§1)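 CLSI-guided microdilution: bacteria passaged overnight at 35° C. on Mueller-Hinton agar, tested in cation-adjusted broth at a final 3×10^5–7×10^5 CFU/mL across 2-fold drug dilutions, read after 18-24 h at 35° C.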

[2] = tested on: APAE006 (strain of P. aeruginosa in which all efflux pumps are inactivated); test: microbe, parasite or virus in culture; format: cell-based; details: Pseudomonas aeruginosa, read-out: MIC APAE006, P. aeruginosa, all efflux pumps inactivated
Method in brief: (§2)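 For the efflux-deficient P. aeruginosa APAE006, one set of MICs includes polymyxin B nonapeptide at 8 micrograms per milliliter.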

[3] = tested on: APAE006 in the presence of 8 micrograms per milliliter of polymyxin B nonapeptide; format: cell-based, P. aeruginosa; details: in the presence of 8 micrograms per milliliter of polymyxin B nonapeptide
Method in brief: as §2

[4] = tested on: AECO001 HSA AGP; test: MIC broth microdilution, AECO001 HSA AGP; format: cell-based, E. coli; details: Escherichia coli
Method in brief: as §1

[5] = tested on: AECO001 (ATCC25922); test: MIC broth microdilution, AECO001; format: cell-based, E. coli; details: Escherichia coli, ATCC25922, read-out: MIC AECO001
Method in brief: as §1

[6] = tested on: AECO063 (ATCC25922 bearing an acrAB mutation); test: microbe, parasite or virus in culture; format: cell-based, E. coli; details: Escherichia coli, ATCC25922, read-out: MIC AECO063
Method in brief: as §1

[7] = tested on: APAE001 (ATCC27853); test: MIC broth microdilution, APAE001; format: cell-based, P. aeruginosa; details: Pseudomonas aeruginosa, ATCC27853, read-out: MIC APAE001, APAE001 is ATCC27853
Method in brief: as §1

[8] = tested on: ASAU001 (laboratory strain of S. aureus, ATCC29213); test: MIC broth microdilution, ASAU001; format: cell-based; details: Staphylococcus aureus, ATCC29213, read-out: MIC ASAU001
Method in brief: as §1

| SMILES | MIC [1] [µg/mL] | MIC [2] [µg/mL] | MIC APAE006 + PMBN [3] | MIC [4] [µg/mL] | MIC [5] [µg/mL] | MIC [6] [µg/mL] | MIC [7] [µg/mL] | MIC [8] [µg/mL] |
| --- | --- | --- | --- | --- | --- | --- | --- | --- |
| CC(C)(O)[C@H](NC(=O)c1ccc(/C=C/C#Cc2ccc(CO)cc2)cc1)C(=O)NO [Example 112-5] | < 2 | < 2 | A (MIC's of 2.0 μg/mL or less = A) | 2 to 16 (≈ 4.9 to 39.2 µM) | < 2 | < 2 | < 2 | 16 to 64 (≈ 39.2 to 157 µM) |
| C[C@H](O)[C@H](NC(=O)c1ccc(C#C/C=C/c2ccc(CO)cc2)cc1)C(=O)NO [Example 101-4] | 16 to 64 (≈ 40.6 to 162 µM) | < 2 | A (MIC's of 2.0 μg/mL or less = A) | 2 to 16 (≈ 5.07 to 40.6 µM) | < 2 | < 2 | 2 to 16 (≈ 5.07 to 40.6 µM) | 16 to 64 (≈ 40.6 to 162 µM) |
| C[C@@H](N)[C@H](NC(=O)c1ccc(C#CC#Cc2cncn2C)cc1)C(=O)NO [Example 88-1, N-((1S,2R)-2-Amino-1-hydroxycarbamoyl-propyl)-4-[4-(3-methyl-3H-imidazol-4-yl)-buta-1,3-diynyl]-benzamide] | 16 to 64 (≈ 43.8 to 175 µM) | < 2 | A (MIC's of 2.0 μg/mL or less = A) | 2 to 16 (≈ 5.47 to 43.8 µM) | < 2 | < 2 | 2 to 16 (≈ 5.47 to 43.8 µM) | 16 to 64 (≈ 43.8 to 175 µM) |
| CNC[C@H](NC(=O)c1ccc(C#C/C=C/c2ccc(CN3CCOCC3)cc2)cc1)C(=O)NO [Example 99-1] | 16 to 64 (≈ 34.6 to 138 µM) | < 2 | A (MIC's of 2.0 μg/mL or less = A) | 2 to 16 (≈ 4.32 to 34.6 µM) | < 2 | < 2 | 2 to 16 (≈ 4.32 to 34.6 µM) | 16 to 64 (≈ 34.6 to 138 µM) |
| CCOCc1ccc(C#C/C=C/c2ccc(C(=O)N[C@H](C(=O)NO)[C@@H](C)N)cc2)cc1 [Example 113-10] | 2 to 16 (≈ 4.74 to 38 µM) | < 2 | A (MIC's of 2.0 μg/mL or less = A) | 2 to 16 (≈ 4.74 to 38 µM) | < 2 | < 2 | 2 to 16 (≈ 4.74 to 38 µM) | 16 to 64 (≈ 38 to 152 µM) |
| C[C@@H](N)[C@H](NC(=O)c1ccc(C#Cc2ccc(CN3CCN(S(C)(=O)=O)CC3)cc2)cc1)C(=O)NO [Example 115-7] | 2 to 16 (≈ 3.89 to 31.2 µM) | < 2 | A (MIC's of 2.0 μg/mL or less = A) | 2 to 16 (≈ 3.89 to 31.2 µM) | < 2 | < 2 | 2 to 16 (≈ 3.89 to 31.2 µM) | > 64 |
| C[C@@H](O)[C@H](NC(=O)c1ccc(C#CC#Cc2cncn2C)cc1)C(=O)NO [Example 88-9] | 16 to 64 (≈ 43.7 to 175 µM) | < 2 | A (MIC's of 2.0 μg/mL or less = A) | 2 to 16 (≈ 5.46 to 43.7 µM) | < 2 | < 2 | 2 to 16 (≈ 5.46 to 43.7 µM) | 16 to 64 (≈ 43.7 to 175 µM) |
| CC(C)(N)C(NC(=O)c1ccc(C#Cc2ccc(CO)cc2)cc1)C(=O)NO (stereo not drawn) [Example 137-5] | 2 to 16 (≈ 5.24 to 41.9 µM) | < 2 | A (MIC's of 2.0 μg/mL or less = A) | 2 to 16 (≈ 5.24 to 41.9 µM) | < 2 | < 2 | < 2 | 16 to 64 (≈ 41.9 to 168 µM) |
| C[C@H](O)[C@H](NC(=O)c1ccc(C#C/C=C/c2ccc(CNC3CC3)cc2)cc1)C(=O)NO [Example 102-4] | 16 to 64 (≈ 36.9 to 148 µM) | < 2 | A (MIC's of 2.0 μg/mL or less = A) | 2 to 16 (≈ 4.61 to 36.9 µM) | < 2 | < 2 | 2 to 16 (≈ 4.61 to 36.9 µM) | > 64 |
| C[C@@H](O)[C@H](NC(=O)c1ccc(C#Cc2ccc(C(F)(F)F)nc2)cc1)C(=O)NO [Example 133-10] | 16 to 64 (≈ 39.3 to 157 µM) | < 2 | A (MIC's of 2.0 μg/mL or less = A) | 2 to 16 (≈ 4.91 to 39.3 µM) | 2 to 16 (≈ 4.91 to 39.3 µM) | < 2 | 16 to 64 (≈ 39.3 to 157 µM) | 16 to 64 (≈ 39.3 to 157 µM) |
| O=C(NC(C(=O)NO)C(F)(F)F)c1ccc(/C=C/C#Cc2ccc(CN3CCOCC3)cc2)cc1 (stereo not drawn) [Example 110-12] | < 2 | < 2 | A (MIC's of 2.0 μg/mL or less = A) | < 2 | < 2 | < 2 | 2 to 16 (≈ 4.1 to 32.8 µM) | 16 to 64 (≈ 32.8 to 131 µM) |
| CC(C)(O)[C@H](NC(=O)c1ccc(C#CC#Cc2ccc(CO)cc2)cc1)C(=O)NO [Example 82-15] | < 2 | < 2 | A (MIC's of 2.0 μg/mL or less = A) | 16 to 64 (≈ 39.4 to 157 µM) | < 2 | < 2 | < 2 | 16 to 64 (≈ 39.4 to 157 µM) |
| NC[C@H](NC(=O)c1ccc(C#CC#Cc2ccc(CO)cc2)cc1)C(=O)NO [Example 82-2] | 16 to 64 (≈ 42.4 to 170 µM) | < 2 | A (MIC's of 2.0 μg/mL or less = A) | 16 to 64 (≈ 42.4 to 170 µM) | < 2 | < 2 | < 2 | 16 to 64 (≈ 42.4 to 170 µM) |
| CC(C)(O)[C@H](NC(=O)c1ccc(C#C/C=C/c2ccc(CN3CCOCC3)cc2)cc1)C(=O)NO [Compound 97-2] | < 2 | < 2 | A (MIC's of 2.0 μg/mL or less = A) | < 2 | < 2 | < 2 | < 2 | 16 to 64 (≈ 33.5 to 134 µM) |
| CC(C)[C@H](NC(=O)c1ccc(C#C/C=C/c2ccc(CN3CCOCC3)cc2)cc1)C(=O)NO [Example 96-3] | 2 to 16 (≈ 4.33 to 34.7 µM) | < 2 | A (MIC's of 2.0 μg/mL or less = A) | 2 to 16 (≈ 4.33 to 34.7 µM) | < 2 | < 2 | 2 to 16 (≈ 4.33 to 34.7 µM) | 16 to 64 (≈ 34.7 to 139 µM) |
| CCOCc1ccc(C#Cc2ccc(C(=O)N[C@H](C(=O)NO)[C@@H](C)N)cc2)cc1 [Example 120-1, N-((1S,2R)-2-Amino-1-hydroxycarbamoyl-propyl)-4-(4-ethoxymethyl-phenylethynyl)-benzamide] | 2 to 16 (≈ 5.06 to 40.5 µM) | < 2 | A (MIC's of 2.0 μg/mL or less = A) | 2 to 16 (≈ 5.06 to 40.5 µM) | < 2 | < 2 | < 2 | 16 to 64 (≈ 40.5 to 162 µM) |
| C[C@@H](O)[C@H](NC(=O)c1ccc(C#C/C=C/c2ccc(CO)cc2)cc1)C(=O)NO [Example 101-1, N-((1S,2R)-2-Hydroxy-1-hydroxycarbamoyl-propyl)-4-[(E)-4-(4-hydroxymethyl-phenyl)-but-3-en-1-ynyl]-benzamide] | 16 to 64 (≈ 40.6 to 162 µM) | < 2 | A (MIC's of 2.0 μg/mL or less = A) | 2 to 16 (≈ 5.07 to 40.6 µM) | < 2 | < 2 | 2 to 16 (≈ 5.07 to 40.6 µM) | 16 to 64 (≈ 40.6 to 162 µM) |
| C[C@@H](O)[C@H](NC(=O)c1ccc(C#C/C=C/c2ccc(CNC3CC3)cc2)cc1)C(=O)NO [Example 102-1, 4-[(E)-4-(4-Cyclopropylaminomethyl-phenyl)-but-3-en-1-ynyl]-N-((1S,2R)-2-hydroxy-1-hydroxycarbamoyl-propyl)-benzamide] | 16 to 64 (≈ 36.9 to 148 µM) | < 2 | A (MIC's of 2.0 μg/mL or less = A) | 2 to 16 (≈ 4.61 to 36.9 µM) | < 2 | < 2 | 2 to 16 (≈ 4.61 to 36.9 µM) | 16 to 64 (≈ 36.9 to 148 µM) |
